In patent US11185531B2, “Arginine methyltransferase inhibitors and uses thereof” (Epizyme, Inc., priority 2013, dated 2021):

What was measured:
human PRMT3 = biological target: T1, human PRMT3 (Homo sapiens, UniProt O60678); assay: PRMT3 Biochemical Assay (3H-SAM Flashplate, peptide substrate); conditions: 30 min preincubation
T1 construct: GST-tagged PRMT3; made in house; host or cells: E. coli BL21(DE3) Gold
Text: Peptide containing the classic RMT substrate motif was synthesized with an N-terminal linker-affinity tag motif and a C-terminal amide cap by 21st Century Biochemicals. The peptide was purified by high-performance liquid chromatography (HPLC) to greater than 95% purity and confirmed by liquid chromatography mass spectrometry (LC-MS). The sequence was Biot-Ahx-[…]-amide (SEQ ID NO:11).
Full-length human PRMT3 (NM_005788.3) isoform 1 transcript clone was amplified from an HEK 293 cDNA library and subcloned into pGEX-KG (GE Life Sciences). The resulting construct encodes an N-terminal GST tag and a thrombin cleavage sequence
GST-tagged PRMT3 was eluted with 50 mM Tris, 2 mM glutathione, pH 7.1 and 50 mM Tris, 20 mM glutathione, pH 7.1. Pooled fractions were dialysed in 20 mM Tris, 50 mM NaCl, 5% glycerol, 1 mM EDTA, 1 mM DTT, pH7.5 (Buffer B) and applied to a Q Sepharose Fast Flow column. GST-tagged PRMT3 was eluted by 500 mM NaCl in buffer B. Pooled fractions were dialyzed in 25 mM phosphate buffer, 100 mM NaCl, 5% glycerol, 2 mM DTT, pH 6.8 (Buffer C) and loaded on to a ceramic hydroxyapatite column. GST-tagged PRMT3 eluted with 25-400 mM phosphate in buffer C. Protein was concentrated and buffer was exchanged to 20 mM Tris, 150 mM NaCl, 5% glycerol, 5 mM β-mercaptoethanol, pH7.8 by ultrafiltration. The purity of recovered protein was 70%.
General Procedure for PRMT3 Enzyme Assays on Peptide Substrates.
The assays were all performed in a buffer consisting of 20 mM Bicine (pH=7.6), 1 mM TCEP, 0.005% BSG, and 0.002% Tween 20, prepared on the day of use. Compounds in 100% DMSO (1 ul) were spotted into a polypropylene 384-well V-bottom plates (Greiner) using a Platemate Plus outfitted with a 384-channel head (Thermo Scientific). DMSO (1 ul) was added to Columns 11, 12, 23, 24, rows A-H for the maximum signal control and 1 ul of SAH, a known product and inhibitor of PRMT3, was added to columns 11, 12, 23, 24, rows I-P for the minimum signal control. A cocktail (40 ul) containing the PRMT3 enzyme was added by Multidrop Combi (Thermo-Fisher). The compounds were allowed to incubate with PRMT3 for 30 min at room temperature, then a cocktail (10 ul) containing SAM and peptide was added to initiate the reaction (final volume=51 ul). The final concentrations of the components were as follows: PRMT3 was 0.5 nM, ^3H-SAM was 100 nM, non-radiolabeled SAM was 1.8 uM, peptide was 330 nM, SAH in the minimum signal control wells was 1 mM, and the DMSO concentration was 2%. The assays were stopped by the addition of potassium chloride (10 ul) to a final concentration of 100 mM. 50 ul of the reaction in the 384-well polypropylene plate was then transferred to a 384-well Flashplate and the biotinylated peptides were allowed to bind to the streptavidin surface for at least 1 hour before being washed once with 0.1% Tween20 in a Biotek ELx405 plate washer. The plates were then read in a PerkinElmer TopCount plate reader to measure the quantity of ^3H-labeled peptide bound to the Flashplate surface, measured as disintegrations per minute (dpm) or alternatively, referred to as counts per minute (cpm).
Where dpm=disintegrations per minute, cmpd=signal in assay well, and min and max are the respective minimum and maximum signal controls.
Where top and bottom are the normally allowed to float, but may be fixed at 100 or 0 respectively in a 3-parameter fit. The Hill Coefficient normally allowed to float but may also be fixed at 1 in a 3-parameter fit. Y is the % inhibition and X is the compound concentration.

[1] = tested on: mono-methyl arginine in RKO cells; assay: RKO Methylation Assay, In Cell Western for mono-methyl arginine; format: cell-based; conditions: Homo sapiens, 72 hours, percent activation of mono-methyl arginine signal
Text: RKO adherent cells were purchased from ATCC (American Type Culture Collection), Manassas, Va., USA. DMEM/Glutamax medium, penicillin-streptomycin, heat inactivated fetal bovine serum, 0.05% trypsin and D-PBS were purchased from Life Technologies, Grand Island, N.Y., USA. Odyssey blocking buffer, 800 CW goat anti-rabbit IgG (H+L) antibody, and Licor Odyssey infrared scanner were purchased from Licor Biosciences, Lincoln, Nebr., USA. Mono-methyl arginine antibody was purchased from Cell Signaling Technology, Danvers, Mass., USA. Methanol was purchased from VWR, Franklin, Mass., USA. 10% Tween 20 was purchased from KPL, Inc., Gaithersburg, Md., USA. DRAQ5 was purchased from Biostatus Limited, Leicestershire, UK.
RKO adherent cells were maintained in growth medium (DMEM/Glutamax medium supplemented with 10% v/v heat inactivated fetal bovine serum and 100 units/mL penicillin-streptomycin) and cultured at 37° C. under 5% CO2.
Cell Treatment, in Cell Western (ICW) for Detection of Mono-Methyl Arginine and DNA Content.
RKO cells were seeded in assay medium at a concentration of 20,000 cells per mL to a poly-D-lysine coated 384 well culture plate (BD Biosciences 356697) with 50 μL per well. Compound (100 nL) from a 96-well source plate was added directly to 384 well cell plate. Plates were incubated at 37° C., 5% CO2 for 72 hours. After three days of incubation, plates were brought to room temperature outside of the incubator for ten minutes and blotted on paper towels to remove cell media. 50 μL of ice cold 100% methanol was added directly to each well and incubated for 30 min at room temperature. After 30 min, plates were transferred to a Biotek EL406 plate washer and washed 2 times with 100 μL per well of wash buffer (IX PBS). Next 60 μL per well of Odyssey blocking buffer (Odyssey Buffer with 0.1% Tween 20 (v/v)) were added to each plate and incubated 1 hour at room temperature. Blocking buffer was removed and 20 μL per well of primary antibody was added (mono-methyl arginine diluted 1:200 in Odyssey buffer with 0.1% Tween 20 (v/v)) and plates were incubated overnight (16 hours) at 4° C. Plates were washed 5 times with 100 μL per well of wash buffer. Next 20 μL per well of secondary antibody was added (1:200 800 CW goat anti-rabbit IgG (H+L) antibody, 1:1000 DRAQ5 (Biostatus limited) in Odyssey buffer with 0.1% Tween 20 (v/v)) and incubated for 1 hour at room temperature. The plates were washed 5 times with 100 μL per well wash buffer then 2 times with 100 μL per well of water. Plates were allowed to dry at room temperature then imaged on the Licor Odyssey machine which measures integrated intensity at 700 nm and 800 nm wavelengths. Both 700 and 800 channels were scanned.
First, the ratio for each well was determined by:
Each plate included fourteen control wells of DMSO only treatment (minimum activation) as well as fourteen control wells for maximum activation treated with 20 μM of a reference compound. The average of the ratio values for each control type was calculated and used to determine the percent activation for each test well in the plate. Reference compound was serially diluted three-fold in DMSO for a total of nine test concentrations, beginning at 20 μM. Percent activation was determined and EC30 curves were generated using triplicate wells per concentration of compound.

T1 sequence (O60678 with tags, fused parts or gaps): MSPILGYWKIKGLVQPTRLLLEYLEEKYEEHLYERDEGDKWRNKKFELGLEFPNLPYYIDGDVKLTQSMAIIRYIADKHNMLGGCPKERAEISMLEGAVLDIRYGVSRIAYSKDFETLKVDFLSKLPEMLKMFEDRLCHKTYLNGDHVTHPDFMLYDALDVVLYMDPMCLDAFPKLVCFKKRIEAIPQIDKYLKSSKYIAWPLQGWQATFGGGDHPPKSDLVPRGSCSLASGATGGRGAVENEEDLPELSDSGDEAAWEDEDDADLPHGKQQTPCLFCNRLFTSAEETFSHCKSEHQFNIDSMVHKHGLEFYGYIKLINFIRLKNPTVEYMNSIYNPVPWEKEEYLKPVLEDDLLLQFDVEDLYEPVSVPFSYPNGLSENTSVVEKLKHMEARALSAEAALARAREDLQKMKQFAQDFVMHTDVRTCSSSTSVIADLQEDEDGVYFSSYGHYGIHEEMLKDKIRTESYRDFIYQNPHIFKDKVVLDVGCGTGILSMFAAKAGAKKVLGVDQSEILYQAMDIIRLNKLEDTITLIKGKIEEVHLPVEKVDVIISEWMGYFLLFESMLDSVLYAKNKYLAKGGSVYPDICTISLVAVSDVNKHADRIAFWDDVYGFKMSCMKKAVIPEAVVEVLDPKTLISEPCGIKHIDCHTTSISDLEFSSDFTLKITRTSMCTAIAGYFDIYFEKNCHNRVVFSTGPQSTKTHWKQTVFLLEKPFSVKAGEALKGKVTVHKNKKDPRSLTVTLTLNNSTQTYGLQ

Row | SMILES | IC50 (human PRMT3) | EC30 [1]
1 | CNCCN(C)Cc1c[nH]nc1C#Cc1cccc(OC)c1 [Compound 1] | 3.01 to 10 µM | 
2 | CNCCN(C)Cc1c[nH]nc1C#Cc1ccc(C(C)(C)C)cc1 [Compound 2] | 1.01 to 3 µM | 
3 | CNCCN(C)Cc1c[nH]nc1C#Cc1ccccc1 [Compound 3] | 3.01 to 10 µM | 
4 | CNCCN(C)Cc1c[nH]nc1/C=C/c1ccc(-c2ccccc2)cc1 [Compound 5] | 1.01 to 3 µM | 
5 | CNCCN(C)Cc1c[nH]nc1/C=C/c1ccc(C(F)(F)F)cc1 [Compound 6] | 3.01 to 10 µM | 
6 | CNCCN(C)Cc1c[nH]nc1/C=C/c1ccc(OC)cc1 [Compound 7] | 3.01 to 10 µM | 
7 | Cc1ccc(/C=C/c2n[nH]cc2CN(C)CCN)cc1 [Compound 8] | 3.01 to 10 µM | 
8 | CN(CCN)Cc1c[nH]nc1C1=CCOCC1 [Compound 10] |  | > 12 µM
9 | COc1cc(/C=C/c2n[nH]cc2CN(C)CCN)cc(OC)c1 [Compound 11] | 1.01 to 3 µM | 
10 | CN(CCN)Cc1c[nH]nc1/C=C/c1ccc(F)cc1F [Compound 13] | 3.01 to 10 µM | 
11 | CN(CCN)Cc1c[nH]nc1/C=C/c1cc(C(F)(F)F)cc(C(F)(F)F)c1 [Compound 14] | 3.01 to 10 µM | 
12 | CN(CCN)Cc1c[nH]nc1/C=C/c1cc(F)cc(F)c1 [Compound 15] | 1.01 to 3 µM | 
13 | CN(CCN)Cc1c[nH]nc1/C=C/c1cccc(C(F)(F)F)c1 [Compound 16] | 3.01 to 10 µM | 
14 | COc1cccc(/C=C/c2n[nH]cc2CN(C)CCN)c1 [Compound 17] | 1.01 to 3 µM | 
15 | CN(CCN)Cc1c[nH]nc1/C=C/c1ccc(C(F)(F)F)cc1 [Compound 18] | 1.01 to 3 µM | 
16 | COC/C=C/c1n[nH]cc1CN(C)CCN [Compound 19] | 3.01 to 10 µM | 
17 | CN(CCN)Cc1c[nH]nc1/C=C/c1cccc(F)c1 [Compound 20] | 1.01 to 3 µM | 
18 | CC(C)c1n[nH]cc1CN(C)CCN [Compound 21] |  | > 12 µM
19 | CN(CCN)Cc1c[nH]nc1C1CCCCC1 [Compound 22] | 3.01 to 10 µM | < 3 µM

Row | SMILES | IC50 (human PRMT3) | EC30 [1]
20 | CN(CCN)Cc1c[nH]nc1CCc1ccc(F)cc1 [Compound 23, N^1-((3-(4-fluorophenethyl)-1H-pyrazol-4-yl)methyl)-N^1-methylethane-1,2-diamine] | 3.01 to 10 µM | < 3 µM
21 | CN(CCN)Cc1c[nH]nc1/C=C/Cc1ccccc1 [Compound 24] |  | < 3 µM
22 | CN(CCN)Cc1c[nH]nc1C1=CCCC1 [Compound 25] |  | 3.01 to 12 µM
23 | CN(CCN)Cc1c[nH]nc1C1CCC1 [Compound 26] |  | > 12 µM
24 | CCCc1n[nH]cc1CN(C)CCN [Compound 29] |  | > 12 µM
25 | Cc1n[nH]cc1CN(C)CCN [Compound 30] |  | > 12 µM
26 | CN(CCN)Cc1c[nH]nc1C1CCCC1 [Compound 31] |  | > 12 µM
27 | CNCCN(C)Cc1c[nH]nc1C1CCN(C(=O)Cc2ccccc2)CC1 [Compound 32] |  | < 3 µM
28 | CN(CCN)Cc1n[nH]cc1C1CCCCC1 [Compound 33] |  | 3.01 to 12 µM
29 | CNCCN(C)Cc1c[nH]nc1C1CCN(C(=O)C(C)C)CC1 [Compound 34] |  | < 3 µM
30 | CC1CCC(c2c[nH]nc2CN(C)CCN)CC1 (stereo not drawn) [Compound 35] |  | < 3 µM
31 | CN(CCN)Cc1n[nH]cc1C1CCC(C)(C)CC1 [Compound 36] |  | < 3 µM
32 | CC1CCC(c2n[nH]cc2CN(C)CCN)CC1 (stereo not drawn) [Compound 37, N^1-methyl-N^1-((3-(4-methylcyclohexyl)-1H-pyrazol-4-yl)methyl)ethane-1,2-diamine] |  | < 3 µM
33 | CN(CCN)Cc1c[nH]nc1C1CCC(C)(C)CC1 [Compound 38, N^1-((3-(4,4-dimethylcyclohexyl)-1H-pyrazol-4-yl)methyl)-N^1-methylethane-1,2-diamine] |  | < 3 µM
34 | CNCCN(C)Cc1c[nH]nc1C1CCN(CC(C)C)CC1 [Compound 39, N^1-((3-(1-isobutylpiperidin-4-yl)-1H-pyrazol-4-yl)methyl)-N^1,N^2-dimethylethane-1,2-diamine] |  | < 3 µM
35 | CNCCN(C)Cc1c[nH]nc1C1CCN(C)CC1 [Compound 41] |  | > 12 µM
36 | CNCCN(C)Cc1c[nH]nc1C1CCNCC1 [Compound 42] |  | > 12 µM
37 | CN(CCN)Cc1n[nH]cc1C1CCC(N2CCOCC2)CC1 (stereo not drawn) [Compound 44, N^1-methyl-N^1-((4-(4-morpholinocyclohexyl)-1H-pyrazol-3-yl)methyl)ethane-1,2-diamine] |  | 3.01 to 12 µM
